Laboratory results reported in patent US12286442B2, “Methods and materials for increasing transcription factor eb polypeptide levels” (University of Pittsburgh—Of the Commonwealth System of …, priority 2019, dated 2025).

Test system: TFEB
Assay: High content screen measuring TFEB nuclear accumulation (TFEB nuclear/cytosol ratio) in BEAS-2B cells stably expressing TFEB-EGFP
Assay type: cell-based, human
Details: 18 hours incubation
Protocol: FIG. 3. High content screen assay (384 well) measuring TFEB nuclear accumulation. Approximately 2500 primary and immortalized human bronchial epithelial cells (BEAS-2B) stably expressing TFEB-EGFP in 25 μL of HITEs media with 10% FBS were dispensed into 384 well plate (Black with glass bottom) and incubated for 8 hours. Compound serial dilution (DMEM low glucose media with 2% FBS, 25 μL volume) were prepared using a robotic liquid hander. Compound solutions were then added to the cell plate and incubated for 18 hours. Cells were then fixed with 4% PFA followed by DAPI staining. TFEB localization was imaged on the GFP channel along with the DAPI signal using a Cytation 5 high content imager. Images were processed through Biotek Gen5 software; specifically, the DAPI signal was used as the primary mask to quantify the nuclear TFEB-GFP signal. The cytosolic TFEB-GFP signal was quantified through expanding the primary mask. The TFEB nuclear/cytosol ratios were calculated from nuclear TFEB-GFP signal/cytosol TFEB-GFP signal, which determined the compound efficacy. […] Compound activities (μM) were determined by the minimal compound concentration needed to increase TFEB nuclear/cytosol ratio by 25%. Activity: “−” equals >25 μM; “+” equals between 25 μM and >10 μM; “++” equals between ≤10 μM and >1 μM; and “+++” equals […]. N=4.
(§1) Approximately 2300 primary and immortalized human bronchial epithelial cells (BEAS-2B) stably expressing TFEB-EGFP in 25 μL of HITEs media with 10% FBS were dispensed into 384 well plate (Black with glass bottom) and incubated for 8 hours. Compound serial dilution (DMEM low glucose media with 2% FBS, 25 μL volume) were prepared using a robotic liquid hander. Compound solution were then added to the cell plate and incubated for 18 hours. Cells were then fixed with 4% PFA followed by DAPI staining. TFEB localization was imaged on the GFP channel along with the DAPI signal using a Cytation 5 high content imager. Images were processed through Biotek Gen5 software. Specifically, the DAPI signal was used as the primary mask to quantify the nuclear TFEB-GFP signal. Cytosolic TFEB-GFP signal was quantified through expanding the primary mask. The TFEB nuclear/cytosol ratios were calculated from nuclear TFEB-GFP signal/cytosol TFEB-GFP signal, which determined the compound efficacies.
Compounds efficacies (μM) were determined by the minimal compound concentration needed to increase TFEB nuclear/cytosol ratio by 25%. Activity: “+” equals >25 μM; “++” equals between ≤25 μM and >1 μM; and “+++” equals ≤1 μM.
A high-content imaging screen was conducted using Beas2B cells that stably express GFP-TFEB.

Compound	efficacy (minimal compound concentration needed to increase TFEB nuclear/cytosol ratio by 25%)
c1ccc2c(Nc3ccc4c(c3)NCCN4)nc(-c3ccncc3)nc2c1 [Compound 42]	+++ (“+++” equals ≤1 μM)
O=c1c2ccccc2n(CCN2CCOCC2)c(=O)n1-c1ccccc1 [Compound 229]	+ (“+” equals >25 μM)
CCc1nc2ccc(Nc3nc(-c4ccncc4)nc4cc(F)ccc34)cc2s1 [Compound 366]	+ (“+” equals >25 μM)
CCc1nc2ccc(Nc3nc(-c4ccncc4)nc4c(C)cccc34)cc2s1 [Compound 148]	+++ (“+++” equals ≤1 μM)
Fc1cccc2c(Nc3cc(F)c4[nH]ccc4c3)nc(-c3ccncc3)nc12 [Compound 158]	+++ (“+++” equals ≤1 μM)
COc1ccc(-n2c(=O)c3ccc(C(=O)NCCc4ccccc4)cc3n(Cc3cccc(F)c3)c2=O)cc1 [Compound 236]	++ (“++” equals between ≤25 μM and >1 μM)
Fc1cc(Nc2nc(-c3ccncc3)cc3ncccc23)cc2cc[nH]c12 [Compound 239]	++ (“++” equals between ≤25 μM and >1 μM)
CC(C)c1nc2ccc(Nc3nc(-c4ccncc4)nc4ccc(F)cc34)cc2s1 [Compound 354]	+ (“+” equals >25 μM)
CCc1nc2ccc(Nc3nc(-c4ccncc4)nc4cc(OC)ccc34)cc2s1 [Compound 150]	+++ (“+++” equals ≤1 μM)
COc1cc(F)cc(Nc2nc(-c3ccncc3)nc3ccccc23)c1 [Compound 19]	+ (“+” equals >25 μM)
Cc1ccc(Nc2nc(-c3ccccc3Cl)nc3ccccc23)c(C)c1 [Compound 199]	+ (“+” equals >25 μM)
NC(=O)c1cccc(Nc2nc(-c3ccncc3)nc3ccccc23)c1 [Compound 3]	+++ (“+++” equals ≤1 μM)

Test system: BEAS-2B cells
Assay: Toxicity: compound concentration needed to induce greater than 50 percent of cell loss
Assay type: cell-based, human
Details: 18 hours incubation
Protocol: as §1
Toxicity was determined by determining the compound concentration needed to induce greater than 50 percent of cell loss. For toxicity, cell loss of greater than 50 percent at a concentration that equals or is greater than 25 μM was represented as cell loss of greater than 50 percent at a concentration less than 25 μM and greater than 1 μM was represented as and cell loss of greater than 50 percent at a concentration that equals or is less than 1 μM was represented as “+++.” The assay results for compounds 1-202, 214-248, 332, 333, and 352-402 are shown in Table A.

Compound	toxicity (compound concentration needed to induce greater than 50 percent of cell loss)
c1ccc2c(Nc3ccc4c(c3)NCCN4)nc(-c3ccncc3)nc2c1 [Compound 42]	+ (cell loss of greater than 50 percent at a concentration that equals or is greater than 25 μM was represented as)
O=c1c2ccccc2n(CCN2CCOCC2)c(=O)n1-c1ccccc1 [Compound 229]	+ (cell loss of greater than 50 percent at a concentration that equals or is greater than 25 μM was represented as)
CCc1nc2ccc(Nc3nc(-c4ccncc4)nc4cc(F)ccc34)cc2s1 [Compound 366]	+ (cell loss of greater than 50 percent at a concentration that equals or is greater than 25 μM was represented as)
CCc1nc2ccc(Nc3nc(-c4ccncc4)nc4c(C)cccc34)cc2s1 [Compound 148]	+ (cell loss of greater than 50 percent at a concentration that equals or is greater than 25 μM was represented as)
Fc1cccc2c(Nc3cc(F)c4[nH]ccc4c3)nc(-c3ccncc3)nc12 [Compound 158]	+ (cell loss of greater than 50 percent at a concentration that equals or is greater than 25 μM was represented as)
COc1ccc(-n2c(=O)c3ccc(C(=O)NCCc4ccccc4)cc3n(Cc3cccc(F)c3)c2=O)cc1 [Compound 236]	+ (cell loss of greater than 50 percent at a concentration that equals or is greater than 25 μM was represented as)
Fc1cc(Nc2nc(-c3ccncc3)cc3ncccc23)cc2cc[nH]c12 [Compound 239]	+ (cell loss of greater than 50 percent at a concentration that equals or is greater than 25 μM was represented as)
CC(C)c1nc2ccc(Nc3nc(-c4ccncc4)nc4ccc(F)cc34)cc2s1 [Compound 354]	+ (cell loss of greater than 50 percent at a concentration that equals or is greater than 25 μM was represented as)
CCc1nc2ccc(Nc3nc(-c4ccncc4)nc4cc(OC)ccc34)cc2s1 [Compound 150]	++ (cell loss of greater than 50 percent at a concentration less than 25 μM and greater than 1 μM was represented as)
COc1cc(F)cc(Nc2nc(-c3ccncc3)nc3ccccc23)c1 [Compound 19]	+ (cell loss of greater than 50 percent at a concentration that equals or is greater than 25 μM was represented as)
Cc1ccc(Nc2nc(-c3ccccc3Cl)nc3ccccc23)c(C)c1 [Compound 199]	+ (cell loss of greater than 50 percent at a concentration that equals or is greater than 25 μM was represented as)
NC(=O)c1cccc(Nc2nc(-c3ccncc3)nc3ccccc23)c1 [Compound 3]	+ (cell loss of greater than 50 percent at a concentration that equals or is greater than 25 μM was represented as)
